Test results: patent US20210324359A1, “USE OF GRAM-NEGATIVE LYSIN-ANTIMICROBIAL PEPTIDE (AMP) POLYPEPTIDE CONSTRUCTS IN TREATING ENDOCARDITIS” (priority 2020, published 2021)

Experiments:
Type in all cases: cell-based, Pseudomonas aeruginosa
[1] = system: carbapenem-resistant P. aeruginosa strains; test: Resensitization of carbapenem-resistant strains, combinations with imipenem or meropenem (Tables 18-22)
Method: Such resensitization may be determined by combining the present lysins or lysin-AMP polypeptide constructs with an antibiotic in a checkerboard assay as described herein. Antibiotic-resistant bacteria, such as carbapenem-resistant P. aeruginosa, are added to the lysin or lysin-AMP polypeptide construct combination. […] See Clinical and Laboratory Standards Institute (CLSI), CLSI. […] M100 Performance Standards for Antimicrobial Susceptibility Testing; 29th Edition. Clinical and Laboratory Standards Institute, Wayne, Pa., which is herein incorporated by reference in its entirety.
Up to seven carbapenem-resistant isolates were assessed. […] See Clinical and Laboratory Standards Institute (CLSI), CLSI. […] M100 Performance Standards for Antimicrobial Susceptibility Testing; 29th Edition. Clinical and Laboratory Standards Institute, Wayne, Pa.

[2] = system: P. aeruginosa; test: MIC, modified CLSI broth microdilution in CAA medium without or with […] human serum (Table 4); conditions: for CAA MIC: CAA medium, no human serum; for CAA/HuS MIC: CAA supplemented with […] human serum; for effect of the structural modification on activity (as assessed by MIC) versus the parent lysin: CAA with and without human serum, parent GN316 or GN37; as to CAA/HuS MIC: CAA supplemented with 2.5% human serum
Excerpt: 2015. […] Clinical and Laboratory Standards Institute, Wayne, Pa.

[3] = system: carbepenam-resistant clinical isolate WC-453; test: MIC in CAA without or with 25% human serum (Table 5); design: CAA MIC: unit not given here; conditions: for CAA/HuS MIC: CAA supplemented with 25% human serum
Method: MIC values were determined using a modification of the standard broth microdilution reference method defined by the Clinical and Laboratory Standards Institute (CLSI), CLSI. […] Methods for Dilution Antimicrobial Susceptibility Tests for Bacteria That Grow Aerobically; Approved Standard-10th Edition. Clinical and Laboratory Standards Institute, Wayne, Pa.

[4] = system: P. aeruginosa strain WC-453; test: Time-kill assay in HEPES or CAA with 25% human serum (Tables 7, 8); conditions: for HEPES (Log10 CFU/mL), 1 hr / HEPES (Log10 CFU/mL), 3 hr: 25 mM HEPES pH 7.4; for HEPES (Log10 CFU/mL), 1 hr / HEPES (Log10 CFU/mL), 3 hr / CAA/HuS (Log10 CFU/mL), 1 hr / CAA/HuS (Log10 CFU/mL), 3 hr: lysin 10 μg/ml, WC-453; for CAA/HuS (Log10 CFU/mL), 1 hr / CAA/HuS (Log10 CFU/mL), 3 hr: CAA + 25% human serum
Method: Exponential phase bacteria were then pelleted and resuspended in 1/5 culture volume of 25 mM HEPES, pH 7.4 before a final adjustment to an optical density corresponding to a McFarland value of 0.5. […] All treatments were incubated at 37° C. with aeration. At time points before the addition of lysin (or buffer control) and at 1 hour and 3 hours intervals thereafter, culture samples were removed for quantitative plating on CAA agar plates.

[5] = in combination with GN121, isolate PA19
[6] = in combination with GN121, isolate PA20
[7] = in combination with GN121, isolate PA21
[8] = in combination with GN121, isolate PA22
[9] = in combination with GN121, isolate PA23
[10] = in combination with GN121, isolate PA24
[11] = in combination with GN123, isolate PA19
[12] = in combination with GN123, isolate PA20
[13] = in combination with GN123, isolate PA21
[14] = in combination with GN123, isolate PA22
[15] = in combination with GN123, isolate PA23
[16] = in combination with GN123, isolate PA24
[17] = in combination with GN123, isolate WC-452

## C[C@@H](O)[C@H]1C(=O)N2C(C(=O)O)=C(SCCN=CN)C[C@H]12 [Imipenem, imipenem, reference compound]
[1]; [5]
  antibiotic MIC, Combination: 1 µg/mL
  carbapenem susceptibility class, Combination: (S) ((S) = sensitive)
[1]; [6]
  antibiotic MIC, Combination: 0.5 µg/mL
  carbapenem susceptibility class, Combination: (S) ((S) = sensitive)
[1]; [7]
  antibiotic MIC, Combination: 1 µg/mL
  carbapenem susceptibility class, Combination: (S) ((S) = sensitive)
[1]; [8]
  antibiotic MIC, Combination: 2 µg/mL
  carbapenem susceptibility class, Combination: (S) ((S) = sensitive)
[1]; [9]
  antibiotic MIC, Combination: 0.125 µg/mL
  carbapenem susceptibility class, Combination: (S) ((S) = sensitive)
[1]; [10]
  antibiotic MIC, Combination: 1 µg/mL
  carbapenem susceptibility class, Combination: (S) ((S) = sensitive)
[1]; [11]
  antibiotic MIC, Combination: 0.5 µg/mL
  carbapenem susceptibility class, Combination: (S) ((S) = sensitive)
[1]; [12]
  antibiotic MIC, Combination: 1 µg/mL
  carbapenem susceptibility class, Combination: (S) ((S) = sensitive)
[1]; [13]
  antibiotic MIC, Combination: 0.5 µg/mL
  carbapenem susceptibility class, Combination: (S) ((S) = sensitive)
[1]; [14]
  antibiotic MIC, Combination: 2 µg/mL
  carbapenem susceptibility class, Combination: (S) ((S) = sensitive)
[1]; [15]
  antibiotic MIC, Combination: 0.25 µg/mL
  carbapenem susceptibility class, Combination: (S) ((S) = sensitive)
[1]; [16]
  antibiotic MIC, Combination: 2 µg/mL
  carbapenem susceptibility class, Combination: (S) ((S) = sensitive)
[1]; [17]
  antibiotic MIC, Combination: 1 µg/mL
  carbapenem susceptibility class, Combination: (S) ((S) = sensitive)
[1]; in combination with GN351, vs. WC-452
  carbapenem susceptibility class, Combination: (S) ((S) = sensitive)
[1]; in combination with GN370, vs. WC-452
  carbapenem susceptibility class, Combination: (S) ((S) = sensitive)
[1]; in combination with GN428, vs. WC-452
  carbapenem susceptibility class, Combination: (S) ((S) = sensitive)
[1]; isolate PA19
  carbapenem susceptibility class, antibiotic Alone: R ((R) = resistant)
[1]; isolate PA20
  carbapenem susceptibility class, antibiotic Alone: R ((R) = resistant)
[1]; isolate PA21
  carbapenem susceptibility class, antibiotic Alone: R ((R) = resistant)
[1]; isolate PA22
  carbapenem susceptibility class, antibiotic Alone: R ((R) = resistant)
[1]; isolate PA23
  carbapenem susceptibility class, antibiotic Alone: R ((R) = resistant)
[1]; isolate PA24
  carbapenem susceptibility class, antibiotic Alone: R ((R) = resistant)
[1]; isolate WC-452
  carbapenem susceptibility class, antibiotic Alone: R ((R) = resistant)

B1: GN223: lysin-AMP construct: RPP moiety, IGEM linker and amurin peptide Gkh2 C-terminal to GN37 lysin (SEQ ID NO: 12) (protein)
chain: MTYTLSKRSLDNLKGVHPDLVAVVHRAIQLTPVDFAVIEGLRSVSRQKELVAAGASKTMNSRHLTGHAVDLAAYVNGIRWDWPLYDAIAVAVKAAAKELGVAIVWGGDWTTFKDGPHFELDRSKYRPPGGGSGGGGSGGGSSKKASRKSFTKGAVKVHKKNVPTRVPMRGGIRL
[2]
  CAA MIC: 32000 µg/mL
  CAA/HuS MIC: 2000 µg/mL
  effect of the structural modification on activity (as assessed by MIC) versus the parent lysin: very strong activity in the presence of human serum

B2: GN239: lysin-AMP construct: IGEM linker and RI18 peptide C-terminal to GN37 lysin (SEQ ID NO: 14) (protein)
chain: MTYTLSKRSLDNLKGVHPDLVAVVHRAIQLTPVDFAVIEGLRSVSRQKELVAAGASKTMNSRHLTGHAVDLAAYVNGIRWDWPLYDAIAVAVKAAAKELGVAIVWGGDWTTFKDGPHFELDRSKYGGGSGGGGSGGGSRKKTRKRLKKIGKVLKWI
[2]
  CAA MIC: 4000 µg/mL
  CAA/HuS MIC: 250 µg/mL
  effect of the structural modification on activity (as assessed by MIC) versus the parent lysin: very strong activity in the presence of human serum

B3: GN243: lysin-AMP construct: PP moiety, IGEM linker and TI15 peptide C-terminal to GN37 lysin (SEQ ID NO: 16) (protein)
chain: MTYTLSKRSLDNLKGVHPDLVAVVHRAIQLTPVDFAVIEGLRSVSRQKELVAAGASKTMNSRHLTGHAVDLAAYVNGIRWDWPLYDAIAVAVKAAAKELGVAIVWGGDWTTFKDGPHFELDRSKYRKKTRKRLKKIGKVLKWIPPGGGSGGGGSGGGSTRKRLKKIGKVLKWI
[2]
  CAA MIC: 32000 µg/mL
  CAA/HuS MIC: 500 µg/mL
  effect of the structural modification on activity (as assessed by MIC) versus the parent lysin: very strong activity in the presence of human serum

B4: GN14: lysin obtained from Pseudomonas phage Lull (SEQ ID NO: 124) (protein)
chain: NNELPWVAEARKYIGLREDTSKTSHNPKLLAMLDRMGEFSNESRAWWHDDETPWCGLFVGYCLGVAGRYVVREWYRARAWEAPQLTKLDRPAYGALVTFTRSGGGHVGFIVGKDARGNLMVLGGNQSNAVSIAPFAVSRVTGYFWPSFWRNKTAVKSVPFEERYSLPLLKSNGELSTNEA
[3]
  activity in CAA supplemented with human serum (25%): active
  CAA MIC: >128
  CAA/HuS MIC: 32
[4]; 10 μg/mL, enumerated lysins in CAA/HuS, general statement for HEPES and CAA/HuS
  bactericidal activity (CFU decrease of 3-Log10, 3 hours after the addition of lysin): bactericidal activity
[4]
  HEPES (Log10 CFU/mL), 1 hr: <3.7 Log10 CFU/mL
  HEPES (Log10 CFU/mL), 3 hr: <3.7 Log10 CFU/mL
  CAA/HuS (Log10 CFU/mL), 1 hr: 5.7 Log10 CFU/mL
  CAA/HuS (Log10 CFU/mL), 3 hr: <3.7 Log10 CFU/mL

B5: GN328: lysin obtained from Pseudomonas protegens (SEQ ID NO: 220) (protein, listed as Pseudomonas protegens)
chain: MNTLRHGDRSQAVRSLQKNLNSHGAILVVDGDYGDATEAAVRAYQLKAGLVVDGIAGEKTQTSLVGGDCALLLKNADLVSAAQRLDLPLASVYAVNEVESNGKGFFANGKPAILFERHIMYRQLKTPRYPGDDPAELKRHADELAAQYPAIINPNPGGYAGGPAEHQRLATARLIDDTAALESASWGAFQIMGFHWKRLGYASVQDFVTAMSASEPRQFEAFVRFIETDPALHKALKARKWSDFARQYNGPNYQRNLYDTKLQRAYERHSACSCGQEVPA
[3]
  activity in CAA supplemented with human serum (25%): active
  CAA MIC: 8
  CAA/HuS MIC: 2

B6: GN40: lysin obtained from Pseudomonas putida strain PA14H7 (SEQ ID NO: 210) (protein, listed as Micavibrio aeruginosavorus)
chain: MFRPSYILPGVAAVMLLASTAAHAAGYEWKRVDYQYLQSVSEKERGMLRIYKDYEEREPCQNYRELPPEVKYVDCKLYHRVAIPDPPPPPAPPPAPEPPKVVSSYEIFFPLDSTALDLQANAMVDKAAADIALYQPSTVIVAGYTDTSGAADYNDQLSANRAMAVSAALSQRGIPNTAMDLEAHGQNDLKVPTADDVHEPQNRRTVIHFMK
[4]
  HEPES (Log10 CFU/mL), 1 hr: 7.0 Log10 CFU/mL
  HEPES (Log10 CFU/mL), 3 hr: 5.7 Log10 CFU/mL
  CAA/HuS (Log10 CFU/mL), 1 hr: 6.6 Log10 CFU/mL
  CAA/HuS (Log10 CFU/mL), 3 hr: 6.7 Log10 CFU/mL

B7: GN81: dispersin B, an enzyme that degrades biofilm (SEQ ID NO: 226); control (protein, listed as Actinobacillus pleuropneumoniae)
chain: MDLPKKESGLTLDIARRFYTVDTIKQFIDTIHQAGGTFLHLHFSDHENYALESSYLEQREENATEKNGTYFNPKTNKPFLTYKQLNEIIYYAKERNIEIVPEVDSPNHMTAIFDLLTLKHGKEYVKGLKSPYIAEEIDINNPEAVEVIKTLIGEVIYIFGHSSRHFHIGGDEFSYAVENNHEFIRYVNTLNDFINSKGLITRVWNDGLIKNNLSELNKNIEITYWSYDGDAQAKEDIQYRREIRADLPELLANGFKVLNYNSYYLYFVPKSGSNIHNDGKYAAEDVLNNWTLGKWDGKNSSNHVQNTQNIIGSSLSIWGERSSALNEQTIQQASKNLLKAVIQKTNDPKSH
[4]
  HEPES (Log10 CFU/mL), 1 hr: 7.4 Log10 CFU/mL
  HEPES (Log10 CFU/mL), 3 hr: 6.5 Log10 CFU/mL
  CAA/HuS (Log10 CFU/mL), 1 hr: 6.7 Log10 CFU/mL
  CAA/HuS (Log10 CFU/mL), 3 hr: 7.0 Log10 CFU/mL

B8: GN65: Lysin GN65, used as control (protein)
chain: MAILKIGSKGLEVKNLQTSLNKIGFNLVADGIFGKATDNAVRAVQAGAGLVVDGIAGPKTMYAIRNAGESHQDHLTEADLIDAARELSVDLASIKAVNQVESRGTGFTKSGKIKTLFERHIMYKKLNAKFGQAKANALAQLYPTLVNAKAGGYTGGDAELERLHGAIAIDKDCAYESASYGLFQIMGFNCVICGYDNAEEMFNDFLTGERAQLMAFVKFIKADANLWKALKDKNWAEFARRYNGPAYAQNQYDTKLAAAYKSFS
modifications: (1)..(264) GN316 lysin
[4]
  HEPES (Log10 CFU/mL), 1 hr: 5.7 Log10 CFU/mL
  HEPES (Log10 CFU/mL), 3 hr: <3.7 Log10 CFU/mL
  CAA/HuS (Log10 CFU/mL), 1 hr: 6.0 Log10 CFU/mL
  CAA/HuS (Log10 CFU/mL), 3 hr: <3.7 Log10 CFU/mL
